Data published in PubChem BioAssay (NCI).
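How tested: cells in 96-well plates exposed to compound for 48 hours at five concentrations. The concentration for full growth arrest is given as TGI.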

How the values were obtained:
Test in all cases: NCI tumour cell line growth inhibition, 48 h
A549 NSCLC = test system: A549 NSCLC
MCF7 breast = test system: MCF7 breast
HS 578T breast = test system: HS 578T breast
SNB-19 CNS = test system: SNB-19 CNS
IGROV1 ovarian = test system: IGROV1 ovarian
ACHN renal = test system: ACHN renal
HCC-2998 colon = test system: HCC-2998 colon
HCT-116 colon = test system: HCT-116 colon
NCI-H522 lung = test system: NCI-H522 lung
HCT-15 colon = test system: HCT-15 colon
T-47D breast = test system: T-47D breast
HOP-62 NSCLC = test system: HOP-62 NSCLC
SNB-75 CNS = test system: SNB-75 CNS
SW-620 colon = test system: SW-620 colon
NCI/ADR-RES ovarian = test system: NCI/ADR-RES ovarian
OVCAR-4 ovarian = test system: OVCAR-4 ovarian
RXF 393 renal = test system: RXF 393 renal
A498 renal = test system: A498 renal
UO-31 renal = test system: UO-31 renal
PC-3 prostate = test system: PC-3 prostate
SK-MEL-5 melanoma = test system: SK-MEL-5 melanoma
UACC-62 melanoma = test system: UACC-62 melanoma
BT-549 breast = test system: BT-549 breast
HL-60(TB) leukemia = test system: HL-60(TB) leukemia
MDA-MB-435 = test system: MDA-MB-435
CAKI-1 renal = test system: CAKI-1 renal
SF-268 CNS = test system: SF-268 CNS
DU-145 prostate = test system: DU-145 prostate
MALME-3M melanoma = test system: MALME-3M melanoma
OVCAR-5 ovarian = test system: OVCAR-5 ovarian
SK-OV-3 ovarian = test system: SK-OV-3 ovarian
NCI-H460 lung = test system: NCI-H460 lung
SN12C renal = test system: SN12C renal
COLO 205 colon = test system: COLO 205 colon
EKVX NSCLC = test system: EKVX NSCLC
NCI-H226 lung = test system: NCI-H226 lung
MDA-N = test system: MDA-N
MOLT-4 leukemia = test system: MOLT-4 leukemia
786-0 renal = test system: 786-0 renal
TK-10 renal = test system: TK-10 renal
HT29 colon = test system: HT29 colon
MDA-MB-231 breast = test system: MDA-MB-231 breast
U251 CNS = test system: U251 CNS
SK-MEL-28 melanoma = test system: SK-MEL-28 melanoma
SF-539 CNS = test system: SF-539 CNS
LOX IMVI melanoma = test system: LOX IMVI melanoma
UACC-257 melanoma = test system: UACC-257 melanoma
OVCAR-8 ovarian = test system: OVCAR-8 ovarian
NCI-H23 lung = test system: NCI-H23 lung
M14 melanoma = test system: M14 melanoma
CCRF-CEM leukemia = test system: CCRF-CEM leukemia
RPMI-8226 leukemia = test system: RPMI-8226 leukemia
OVCAR-3 ovarian = test system: OVCAR-3 ovarian
KM12 colon = test system: KM12 colon
SF-295 CNS = test system: SF-295 CNS
SK-MEL-2 melanoma = test system: SK-MEL-2 melanoma
K-562 leukemia = test system: K-562 leukemia

Cc1cc2c(cc1Cl)SC(NNc1ccc([N+](=O)[O-])cc1)=NS2(=O)=O
TGI (A549 NSCLC): > 10 µM | TGI (MCF7 breast): > 10 µM | TGI (HS 578T breast): > 10 µM | TGI (SNB-19 CNS): > 10 µM | TGI (IGROV1 ovarian): > 10 µM | TGI (ACHN renal): > 10 µM | TGI (HCC-2998 colon): > 10 µM | TGI (HCT-116 colon): > 10 µM | TGI (NCI-H522 lung): > 10 µM | TGI (HCT-15 colon): > 10 µM | TGI (T-47D breast): > 10 µM | TGI (HOP-62 NSCLC): > 10 µM | TGI (SNB-75 CNS): > 10 µM | TGI (SW-620 colon): > 10 µM | TGI (NCI/ADR-RES ovarian): > 10 µM | TGI (OVCAR-4 ovarian): > 10 µM | TGI (RXF 393 renal): > 10 µM | TGI (A498 renal): > 10 µM | TGI (UO-31 renal): > 10 µM | TGI (PC-3 prostate): > 10 µM | TGI (SK-MEL-5 melanoma): > 10 µM | TGI (UACC-62 melanoma): > 10 µM | TGI (BT-549 breast): > 10 µM | TGI (HL-60(TB) leukemia): > 10 µM | TGI (MDA-MB-435): > 10 µM | TGI (CAKI-1 renal): > 10 µM | TGI (SF-268 CNS): > 10 µM | TGI (DU-145 prostate): > 10 µM | TGI (MALME-3M melanoma): > 10 µM | TGI (OVCAR-5 ovarian): > 10 µM | TGI (SK-OV-3 ovarian): > 10 µM | TGI (NCI-H460 lung): > 10 µM | TGI (SN12C renal): > 10 µM | TGI (COLO 205 colon): > 10 µM | TGI (EKVX NSCLC): > 10 µM | TGI (NCI-H226 lung): > 10 µM | TGI (MDA-N): > 10 µM | TGI (MOLT-4 leukemia): > 10 µM | TGI (786-0 renal): > 10 µM | TGI (TK-10 renal): > 10 µM | TGI (HT29 colon): > 10 µM | TGI (MDA-MB-231 breast): > 10 µM | TGI (U251 CNS): > 10 µM | TGI (SK-MEL-28 melanoma): > 10 µM | TGI (SF-539 CNS): > 10 µM | TGI (LOX IMVI melanoma): > 10 µM | TGI (UACC-257 melanoma): > 10 µM | TGI (OVCAR-8 ovarian): > 10 µM | TGI (NCI-H23 lung): > 10 µM | TGI (M14 melanoma): > 10 µM | TGI (CCRF-CEM leukemia): > 10 µM | TGI (RPMI-8226 leukemia): > 10 µM | TGI (OVCAR-3 ovarian): > 10 µM | TGI (KM12 colon): > 10 µM | TGI (SF-295 CNS): > 10 µM | TGI (SK-MEL-2 melanoma): > 10 µM | TGI (K-562 leukemia): > 10 µM

O=C1c2ccccc2-c2c1c(-c1cccc(Br)c1)nc1ccc3ccccc3c21
TGI (A549 NSCLC): > 100 µM | TGI (MCF7 breast): > 100 µM | TGI (HS 578T breast): > 100 µM | TGI (SNB-19 CNS): > 100 µM | TGI (ACHN renal): > 100 µM | TGI (HCC-2998 colon): > 100 µM | TGI (HCT-116 colon): > 100 µM | TGI (HCT-15 colon): > 100 µM | TGI (T-47D breast): > 100 µM | TGI (HOP-62 NSCLC): > 100 µM | TGI (SNB-75 CNS): > 100 µM | TGI (SW-620 colon): > 100 µM | TGI (NCI/ADR-RES ovarian): > 100 µM | TGI (OVCAR-4 ovarian): > 100 µM | TGI (RXF 393 renal): > 100 µM | TGI (A498 renal): > 100 µM | TGI (UO-31 renal): > 100 µM | TGI (PC-3 prostate): > 100 µM | TGI (UACC-62 melanoma): > 100 µM | TGI (BT-549 breast): > 100 µM | TGI (MDA-MB-435): > 100 µM | TGI (CAKI-1 renal): > 100 µM | TGI (SF-268 CNS): > 100 µM | TGI (DU-145 prostate): > 100 µM | TGI (MALME-3M melanoma): > 100 µM | TGI (OVCAR-5 ovarian): > 100 µM | TGI (SK-OV-3 ovarian): > 100 µM | TGI (NCI-H460 lung): > 100 µM | TGI (SN12C renal): > 100 µM | TGI (COLO 205 colon): > 100 µM | TGI (EKVX NSCLC): > 100 µM | TGI (NCI-H226 lung): > 100 µM | TGI (MDA-N): > 100 µM | TGI (MOLT-4 leukemia): > 100 µM | TGI (786-0 renal): > 100 µM | TGI (HT29 colon): > 100 µM | TGI (MDA-MB-231 breast): > 100 µM | TGI (U251 CNS): > 100 µM | TGI (SK-MEL-28 melanoma): > 100 µM | TGI (SF-539 CNS): > 100 µM | TGI (LOX IMVI melanoma): > 100 µM | TGI (UACC-257 melanoma): > 100 µM | TGI (OVCAR-8 ovarian): > 100 µM | TGI (NCI-H23 lung): > 100 µM | TGI (M14 melanoma): > 100 µM | TGI (CCRF-CEM leukemia): > 100 µM | TGI (RPMI-8226 leukemia): > 100 µM | TGI (OVCAR-3 ovarian): > 100 µM | TGI (KM12 colon): > 100 µM | TGI (SF-295 CNS): > 100 µM | TGI (SK-MEL-2 melanoma): > 100 µM | TGI (K-562 leukemia): > 100 µM
